Assay results taken from patent US7413895B2, “DNA encoding neutral amino acid transporter” (Japan Science and Technology Corporation, priority 1998, dated 2008).

How the values were obtained:
CCRF-SB cells = test: Proliferation of CCRF-SB cells, effect of BCH; format: cell-based, human; settings: expression of 4F2hc not detected
Mouse sarcoma 180 cells = test: Survival of ICR mouse after intraperitoneal transplantation of mouse sarcoma 180 cells; format: in vivo; settings: male ICR mouse, sarcoma 180 cells intraperitoneally transplanted, 300 mg/kg for ten days, observation for 19 days
Protocol: Mouse sarcoma 180 cells were intraperitoneally transplanted (1×10^6) to male ICR mouse and, from the next day of the transplantation, BCH which was a inhibitor for the amino acid transporter, D-Leu having a inhibiting effect on amino acid transporter and D-Ala having no inhibiting action thereon were administered at the dose of 300 mg/kg for ten days. After the transplantation, it was confirmed every day whether the mouse was dead or alive.

P30/OHK cells = test: Proliferation of P30/OHK cells, effect of BCH; format: cell-based, human; settings: expression of 4F2hc not detected
[1] = system: T24 cells derived from human bladder cancer; test: Inhibition of 14C-leucine incorporation by T24 cells by amino acids and similar substances; format: cell-based; settings: 14C-leucine 20 μM, 2 mM unlabeled compound
Human Daudi cells = test: Proliferation of Daudi cells with or without BCH; format: cell-based; settings: 20 mM of BCH, 5 days, cell numbers counted
Protocol: (§1) T24 cells derived from human bladder cancer were incubated and maintained in an Eagle's minimal essential medium containing 10% of fetal bovine serum. Human Daudi cells were incubated and maintained in an RPMI medium containing 20% of fetal bovine serum. T24 cells or Daudil cells were incubated in a 24-well plate (800 cells/well) for 5 days in a medium with or without 20 mM of BCH and the cell numbers were counted.

[2] = system: T24 cells derived from human bladder cancer; test: Proliferation of T24 cells with or without BCH; format: cell-based; settings: 20 mM of BCH, 5 days, cell numbers counted
Protocol: as §1

[3] = system: rat liver cell line where LAT1 was highly expressed; test: Cell proliferation of cultured rat liver cell line, Cell Counting Kit-8; format: cell-based; settings: 20 mM added to William's medium, incubation for 48 hours
Protocol: A rat liver cell line where LAT1 was highly expressed was incubated on a William's medium, 20 mM of D-leucine or BCH which suppressed the incorporation mediated by LAT1 were added to the medium and, by means of an incubation for 48 hours, cell numbers were investigated using a Cell Counting Kit-8 (manufactured by Dojindo Laboratories). The cell numbers were measured as an absorption at 450 nm (O.D. 450).

[4] = target: rat neutral amino acid transporter LAT1 (Rattus norvegicus, UniProt Q63016); test: Inhibition of 14C-leucine incorporation into oocytes injected with rat LAT1 and rat 4F2hc cRNA by amino acids and similar substances; format: cell-based; parameters: expressed in transfected cells; host or cells: oocytes (Xenopus laevis by the cited method of Kanai and Hediger) injected with rat LAT1 cRNA and rat 4F2hc cRNA; settings: rat LAT1/rat 4F2hc oocytes; 14C-leucine 20 μM, 2 mM unlabeled compound, choline uptake solution
Sequence of rat neutral amino acid transporter LAT1 (Q63016 whole entry): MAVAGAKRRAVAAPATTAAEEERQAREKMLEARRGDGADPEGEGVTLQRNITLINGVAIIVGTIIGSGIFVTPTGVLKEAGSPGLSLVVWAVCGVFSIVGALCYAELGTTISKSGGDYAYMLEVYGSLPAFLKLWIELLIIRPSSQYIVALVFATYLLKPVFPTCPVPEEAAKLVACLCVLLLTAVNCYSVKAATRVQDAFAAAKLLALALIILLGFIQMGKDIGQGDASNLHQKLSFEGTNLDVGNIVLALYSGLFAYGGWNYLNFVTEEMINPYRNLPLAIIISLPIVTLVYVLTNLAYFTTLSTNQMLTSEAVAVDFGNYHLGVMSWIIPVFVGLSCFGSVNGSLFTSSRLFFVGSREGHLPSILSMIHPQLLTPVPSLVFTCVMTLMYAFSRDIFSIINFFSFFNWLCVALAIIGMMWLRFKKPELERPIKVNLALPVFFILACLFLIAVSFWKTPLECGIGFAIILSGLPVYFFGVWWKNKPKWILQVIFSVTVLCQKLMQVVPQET
Sequence of rat neutral amino acid transporter LAT1 (Q794F9 whole entry partner): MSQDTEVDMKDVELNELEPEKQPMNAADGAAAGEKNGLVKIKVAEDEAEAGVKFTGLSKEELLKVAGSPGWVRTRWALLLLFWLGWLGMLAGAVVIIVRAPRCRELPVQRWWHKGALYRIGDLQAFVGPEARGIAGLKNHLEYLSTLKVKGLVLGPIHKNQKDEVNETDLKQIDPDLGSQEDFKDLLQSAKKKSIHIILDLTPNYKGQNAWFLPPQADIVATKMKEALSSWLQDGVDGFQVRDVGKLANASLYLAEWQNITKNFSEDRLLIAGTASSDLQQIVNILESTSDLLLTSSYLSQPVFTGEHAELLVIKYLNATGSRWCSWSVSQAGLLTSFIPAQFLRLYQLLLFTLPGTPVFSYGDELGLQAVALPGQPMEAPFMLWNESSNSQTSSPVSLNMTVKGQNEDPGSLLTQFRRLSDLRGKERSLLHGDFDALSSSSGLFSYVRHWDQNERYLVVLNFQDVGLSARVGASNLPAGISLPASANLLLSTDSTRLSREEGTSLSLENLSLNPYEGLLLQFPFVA

[5] = target: T1, human amino acid transporter LAT1 (Homo sapiens, UniProt Q01650); test: Competitive antagonism test: incorporation of 14C-labeled leucine or phenylalanine into oocytes co-expressing human LAT1 and human 4F2hc in the presence of test substance; format: cell-based; parameters: expressed in transfected cells; settings: 14C-labeled leucine 20 μM, test substance 2 mM, 30 minutes, choline chloride uptake solution
T1 sequence (Q01650 whole entry): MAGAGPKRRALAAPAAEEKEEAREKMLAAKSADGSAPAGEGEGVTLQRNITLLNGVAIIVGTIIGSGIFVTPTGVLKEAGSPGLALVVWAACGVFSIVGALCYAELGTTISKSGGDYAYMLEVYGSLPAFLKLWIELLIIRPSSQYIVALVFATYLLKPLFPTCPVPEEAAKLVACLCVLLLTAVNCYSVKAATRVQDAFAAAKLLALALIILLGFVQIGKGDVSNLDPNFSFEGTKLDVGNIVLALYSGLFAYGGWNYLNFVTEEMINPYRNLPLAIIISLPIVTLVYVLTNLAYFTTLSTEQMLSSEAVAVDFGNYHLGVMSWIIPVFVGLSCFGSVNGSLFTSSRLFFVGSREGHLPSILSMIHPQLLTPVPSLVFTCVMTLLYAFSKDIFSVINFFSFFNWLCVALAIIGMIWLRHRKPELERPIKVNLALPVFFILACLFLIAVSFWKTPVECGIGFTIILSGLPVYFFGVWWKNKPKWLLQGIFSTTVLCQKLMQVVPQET
T1 sequence (as listed by the source partner): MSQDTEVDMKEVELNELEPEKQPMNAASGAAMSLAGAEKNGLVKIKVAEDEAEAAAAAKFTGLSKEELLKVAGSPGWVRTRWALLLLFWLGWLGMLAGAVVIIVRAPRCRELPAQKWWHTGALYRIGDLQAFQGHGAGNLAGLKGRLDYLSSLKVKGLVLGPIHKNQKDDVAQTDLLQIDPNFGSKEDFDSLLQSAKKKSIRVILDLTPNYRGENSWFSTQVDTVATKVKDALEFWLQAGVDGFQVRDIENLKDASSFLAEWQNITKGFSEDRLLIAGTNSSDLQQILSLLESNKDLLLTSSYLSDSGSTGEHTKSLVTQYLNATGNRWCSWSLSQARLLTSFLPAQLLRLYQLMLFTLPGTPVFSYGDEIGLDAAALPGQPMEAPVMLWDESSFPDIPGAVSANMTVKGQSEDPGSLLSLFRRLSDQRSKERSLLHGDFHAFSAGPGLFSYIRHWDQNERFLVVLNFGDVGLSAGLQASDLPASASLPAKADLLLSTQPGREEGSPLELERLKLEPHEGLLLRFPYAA

[6] = target: T1, human amino acid transporter LAT1; test: Incorporation of 14C-labeled amino acids into oocytes co-expressing human LAT1 and human 4F2hc; format: cell-based; parameters: expressed in transfected cells; settings: summary statement of the disclosure
[7] = system: cells where both LAT1 and 4F2hc were strongly expressed; test: Proliferation of cells where both LAT1 and 4F2hc were strongly expressed, effect of BCH; format: cell-based, human
Protocol: as §1

[8] = system: T24 cells derived from human bladder cancer; test: Inhibiting mode of leucine incorporation by T24 cells by BCH, double reciprocal plots; format: cell-based
Protocol: T24 cells derived from human bladder cancer were incubated and maintained in an Eagle's minimal essential medium containing 10% of fetal bovine serum. A test for the incorporation of amino acids into T24 cells was carried out by incubating the T24 cells on a 24-well plate and finished when the state became confluent. The amino acid incorporation test was started by removing the incubating solution and adding a Dulbecco's PBS (manufactured by Gibco) containing ^14C-amino acid and finished by removing it, cooling with ice and washing with a Dulbecco's PBS. After washing, the above was dissolved in 0.1N NaOH and the radioactivity was measured by a liquid scintillation counter.
Dependency of the ^14C-leucine incorporation by T24 cells on the concentration was measured in the absence of BCH, in the presence of 50 μM of BCH and in the presence of 100 μM of BCH and the inhibiting mode was investigated by means of double reciprocal plots.

NC1(C(=O)O)CC2CCC1C2 (stereo not shown) [BCH, 2-amino-2-norbornane-carboxylic acid]
effect on proliferation of CCRF-SB cells (CCRF-SB cells): weak
survival effect (Mouse sarcoma 180 cells): significant survival effect
effect on proliferation of P30/OHK cells (P30/OHK cells): weak
inhibition of incorporation of 14C-leucine by T24 cells [1]: strongly inhibited
suppression of proliferation of Daudi cells (Human Daudi cells): rarely showed a suppressing effect
suppression of proliferation of T24 cells [2]: highly suppressed
cell numbers (O.D. 450) compared with control group [3]: a reduction in the cell numbers was noted
inhibition of incorporation of 14C-leucine mediated by LAT1 [4]: inhibited
inhibition of incorporation of 14C-labeled leucine mediated by the human LAT1 [5]: inhibited
incorporation in a cell in which human LAT1 and human 4F2hc are co-expressed [6]: confirmed
suppressing effect on proliferation [7]: strong suppressing effect
inhibiting mode of leucine incorporation ([8]; 0, 50 μM and 100 μM of BCH, double reciprocal plots): competitive inhibition
Ki ([8]; 14C-leucine incorporation, 50 μM and 100 μM of BCH): 156 µM
